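Values below derive from 48-hour exposures of cells grown in 96-well plates, with endpoints linearly interpolated between the two concentrations bracketing the appropriate inhibition level. GI50 = concentration required for 50% inhibition of growth. Definition used: TGI = concentration required for complete inhibition of growth.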
Legend:
Assay in all cases: NCI tumour cell line growth inhibition, 48 h
[1] = tested on: K-562 leukemia
[2] = tested on: MDA-MB-468 breast
[3] = tested on: RPMI-8226 leukemia
[4] = tested on: NCI-H226 lung
[5] = tested on: DU-145 prostate
[6] = tested on: OVCAR-5 ovarian
[7] = tested on: UACC-62 melanoma
[8] = tested on: SW-620 colon
[9] = tested on: NCI-H522 lung
[10] = tested on: A498 renal
[11] = tested on: A549 NSCLC
[12] = tested on: CCRF-CEM leukemia
[13] = tested on: MALME-3M melanoma
[14] = tested on: NCI-H23 lung
[15] = tested on: M14 melanoma
[16] = tested on: EKVX NSCLC
[17] = tested on: SF-539 CNS
[18] = tested on: HS 578T breast
[19] = tested on: HT29 colon
[20] = tested on: HL-60(TB) leukemia
[21] = tested on: UO-31 renal
[22] = tested on: T-47D breast
[23] = tested on: OVCAR-4 ovarian
[24] = tested on: 786-0 renal
[25] = tested on: MDA-MB-231 breast
[26] = tested on: HOP-92 NSCLC
[27] = tested on: RXF 393 renal
[28] = tested on: SK-MEL-2 melanoma
[29] = tested on: MOLT-4 leukemia
[30] = tested on: MCF7 breast
[31] = tested on: UACC-257 melanoma
[32] = tested on: U251 CNS
[33] = tested on: LOX IMVI melanoma
[34] = tested on: HCT-116 colon
[35] = tested on: HCT-15 colon
[36] = tested on: BT-549 breast
[37] = tested on: SF-295 CNS
[38] = tested on: CAKI-1 renal
[39] = tested on: PC-3 prostate
[40] = tested on: ACHN renal
[41] = tested on: SR leukemia
[42] = tested on: OVCAR-3 ovarian
[43] = tested on: HOP-62 NSCLC
[44] = tested on: OVCAR-8 ovarian
[45] = tested on: TK-10 renal
[46] = tested on: NCI/ADR-RES ovarian
[47] = tested on: SNB-75 CNS
[48] = tested on: HCC-2998 colon
[49] = tested on: SK-MEL-5 melanoma
[50] = tested on: MDA-MB-435
[51] = tested on: IGROV1 ovarian
[52] = tested on: SN12C renal
[53] = tested on: SNB-19 CNS
[54] = tested on: SK-OV-3 ovarian
[55] = tested on: NCI-H460 lung

Q: What does the source list for O=C(Nc1ccc(OCC(=O)c2ccc(Cl)cc2)cc1)Nc1ccc(Cl)c(C(F)(F)F)c1?
A: GI50 [1]: 10.4 µM; TGI [1]: > 100 µM; GI50 [2]: 2.97 µM; TGI [2]: > 100 µM; GI50 [3]: 3.21 µM; TGI [3]: > 100 µM; GI50 [4]: 3.16 µM; TGI [4]: > 100 µM; GI50 [5]: 7.97 µM; TGI [5]: > 100 µM; GI50 [6]: 7.49 µM; TGI [6]: > 100 µM; GI50 [7]: 3.28 µM; TGI [7]: > 100 µM; GI50 [8]: 4.67 µM; TGI [8]: > 100 µM; GI50 [9]: 3.68 µM; TGI [9]: > 100 µM; GI50 [10]: 3 µM; TGI [10]: 30 µM; GI50 [11]: 3.69 µM; TGI [11]: > 100 µM; GI50 [12]: 3.95 µM; TGI [12]: > 100 µM; GI50 [13]: 3.61 µM; TGI [13]: > 100 µM; GI50 [14]: 5.83 µM; TGI [14]: 31.1 µM; GI50 [15]: 4.4 µM; TGI [15]: > 100 µM; GI50 [16]: 3.53 µM; TGI [16]: > 100 µM; GI50 [17]: 7.74 µM; TGI [17]: 24.8 µM; GI50 [18]: 4.44 µM; TGI [18]: > 100 µM; GI50 [19]: 4.75 µM; TGI [19]: > 100 µM; GI50 [20]: 4.43 µM; TGI [20]: > 100 µM; GI50 [21]: 3.44 µM; TGI [21]: > 100 µM; GI50 [22]: 3.25 µM; TGI [22]: > 100 µM; GI50 [23]: 5.35 µM; TGI [23]: 46.1 µM; GI50 [24]: 5.8 µM; TGI [24]: 26.1 µM; GI50 [25]: 5.93 µM; TGI [25]: 32 µM; GI50 [26]: 4.07 µM; TGI [26]: 42.1 µM; GI50 [27]: 3.13 µM; TGI [27]: 9.28 µM; GI50 [28]: 2.92 µM; TGI [28]: > 100 µM; GI50 [29]: 3.6 µM; TGI [29]: > 100 µM; GI50 [30]: 5.15 µM; TGI [30]: > 100 µM; GI50 [31]: 3.55 µM; TGI [31]: > 100 µM; GI50 [32]: 5.48 µM; TGI [32]: 25.8 µM; GI50 [33]: 4.41 µM; TGI [33]: 22.2 µM; GI50 [34]: 4.66 µM; TGI [34]: > 100 µM; GI50 [35]: 3.17 µM; TGI [35]: > 100 µM; GI50 [36]: 11.5 µM; TGI [36]: 70.3 µM; GI50 [37]: 3.8 µM; TGI [37]: 32.4 µM; GI50 [38]: 4.1 µM; TGI [38]: > 100 µM; GI50 [39]: 2.9 µM; TGI [39]: > 100 µM; GI50 [40]: 3.75 µM; TGI [40]: > 100 µM; GI50 [41]: 13.7 µM; TGI [41]: > 100 µM; GI50 [42]: 4.12 µM; TGI [42]: > 100 µM; GI50 [43]: 10.5 µM; TGI [43]: 75.8 µM; GI50 [44]: 7.17 µM; TGI [44]: > 100 µM; GI50 [45]: 15.9 µM; TGI [45]: > 100 µM; GI50 [46]: 4.06 µM; TGI [46]: > 100 µM; GI50 [47]: 2.53 µM; TGI [47]: 45.6 µM; GI50 [48]: 3.4 µM; TGI [48]: > 100 µM; GI50 [49]: 6.19 µM; TGI [49]: > 100 µM; GI50 [50]: 6.7 µM; TGI [50]: > 100 µM; GI50 [51]: 5.85 µM; TGI [51]: > 100 µM; GI50 [52]: 6 µM; TGI [52]: > 100 µM; GI50 [53]: 4.62 µM; TGI [53]: 30.1 µM; GI50 [54]: 14.2 µM; TGI [54]: > 100 µM; GI50 [55]: 3.46 µM; TGI [55]: > 100 µM

Reference: PubChem BioAssay (NCI)
